Test results from patent US20240307283A1, “COMPOSITIONS AND METHODS FOR DECREASING PIGMENTATION” (The General Hospital Corporation, priority 2021, published 2024).

Experiments:
[1] = tested on: primary human melanocytes; experiment: Intracellular melanin content of primary human melanocytes with NNT inhibitors; type: cell-based; settings: 2.3 BD 2 mM for 72 hours, FIG. 10D
Excerpt: Primary human melanocytes were isolated from normal discarded foreskins and were established in TIVA medium as described previously (Khaled et al., 2010) or in Medium 254 (Life Technologies, #M254500) (Allouche et al., 2015). Human melanoma cell line UACC257 (sex unspecified) was obtained from the National Cancer Institute (NCI), Frederick Cancer Division of Cancer Treatment and Diagnosis (DCTD) Tumor Cell Line Repository. SK-MEL-30 ([…]) human melanoma cell line was from Memorial Sloan Kettering Cancer Center. Both melanoma cell lines have been authenticated by our lab using ATCC's STR profiling service. UACC257 and SK-MEL-30 cells were cultured in DMEM and RPMI medium (Life Technologies, #11875119) respectively, supplemented with 10% fetal bovine serum and 1% penicillin/streptomycin/L-glutamine in a humidified atmosphere of 95% air and 5% CO2 at 37° C.
(§1) In vitro culture with NNT inhibitors: 2,3-Butanedione 97% (2,3 BD) (Sigma Aldrich, #B85307) (1 μM, 10 μM, 100 μM, 2 mM), N,N-Dicyclohexylcarbodiimide (DCC) (Sigma Aldrich, #D80002) (1 mM, 2 mM, 10 mM), and Palmitoyl coenzyme A lithium salt (Sigma Aldrich, #P9716) (10 μM, 2 mM) were reconstituted with DMSO (American Type Culture Collection, 4-X).
(§2) Melanin quantification: Equal numbers of cells were plated in 6-well plates. The cells were then harvested 72-96 hours post siRNA or NNT inhibitors compounds, as indicated in the legends, pelleted, washed in PBS and counted. 10^6 cells were used for measurement of protein concentration with the Pierce BCA protein assay (Thermo Fisher Scientific, #23225) and 10^6 cells were resuspended in 60 μl of 1 N NaOH solution and incubated at 60° C. for 2 h or until the melanin was completely dissolved. After cooling down to room temperature, samples were centrifuged at 500×g for 10 min and the supernatants were loaded onto a 96-well plate. The melanin content was determined by measuring the absorbance at 405 nm on an Envision plate reader, compared with a melanin standard (0 to 50 μg/ml; Sigma Aldrich, #M8631). Melanin content was expressed as micrograms per milligram of protein.

[2] = tested on: primary melanocytes; experiment: Cell viability of primary melanocytes, different doses; type: cell-based, human; settings: different doses, relative to vehicle, FIG. 10C
Method: (§3) Cell viability assay: Human melanoma cell lines and isolated primary cultured human melanocytes were propagated and tested in early passage (Passages 7 to 9). The effects of NNT inhibitors (2,3BD, DCC, and Palmitoyl coenzyme A lithium salt) on cell viability were evaluated by the CellTiter-Glo Luminescent Cell Viability Assay (Promega, #G7570) and measurement of luminescence was performed on an EnVision 2104 Multilabel Reader (PerkinElmer). Human melanoma cell lines and primary melanocytes were plated on 96-well white plates (10,000 cells/well) and were treated with the NNT inhibitors at the indicated concentrations for 24 h.

[3] = tested on: murine Melan-A cells; experiment: Melanin content of Melan-A cells with NNT inhibitors; type: cell-based, mouse; settings: 2 mM, FIG. 3A
Method: Murine Melan-A (Bennett et al., 1987) cells were obtained from the Wellcome Trust Functional Genomics Cell Bank. Melan-A cells were grown in RPMI 1640 supplemented with 10% FBS or FetalPlex (Gemini Bio-Products, #100-602), 100,000 U/L penicillin, 100 mg/L streptomycin sulphate, 100× Glutamax, and 200 nM TPA.
as §1, §2

[4] = tested on: UACC257 human melanoma cell line; experiment: Cell viability of UACC257 cells; type: cell-based; settings: different doses, FIG. 10E
Method: as §3

[5] = tested on: human melanocytes, dermal fibroblasts, and keratinocytes; experiment: Cell viability of human skin cells with NNT inhibitors; type: cell-based; settings: up to 10 μM, FIG. 10B
Method: Primary human keratinocytes were cultured in EpiLife® medium supplemented with human keratinocyte growth supplement (HKGS, ThermoFisher Scientific). Primary human fibroblasts were cultured in medium 106 supplemented with low serum growth supplement (LSGS, ThermoFisher Scientific). 10^6 and […] cells were plated per well of 6-well and 96-well plates, respectively. Drugs indicated in the figure legends were dissolved in DMSO and added 1:1000 to the culture media for 24 h at the concentrations indicated.
as §3

[6] = biological target: T1, NNT (Homo sapiens, UniProt Q13423); experiment: GSH/GSSG ratio in UACC257 melanoma cells; type: cell-based; parameters: endogenous in cells; settings: different doses
T1 sequence (Q13423 44-1086): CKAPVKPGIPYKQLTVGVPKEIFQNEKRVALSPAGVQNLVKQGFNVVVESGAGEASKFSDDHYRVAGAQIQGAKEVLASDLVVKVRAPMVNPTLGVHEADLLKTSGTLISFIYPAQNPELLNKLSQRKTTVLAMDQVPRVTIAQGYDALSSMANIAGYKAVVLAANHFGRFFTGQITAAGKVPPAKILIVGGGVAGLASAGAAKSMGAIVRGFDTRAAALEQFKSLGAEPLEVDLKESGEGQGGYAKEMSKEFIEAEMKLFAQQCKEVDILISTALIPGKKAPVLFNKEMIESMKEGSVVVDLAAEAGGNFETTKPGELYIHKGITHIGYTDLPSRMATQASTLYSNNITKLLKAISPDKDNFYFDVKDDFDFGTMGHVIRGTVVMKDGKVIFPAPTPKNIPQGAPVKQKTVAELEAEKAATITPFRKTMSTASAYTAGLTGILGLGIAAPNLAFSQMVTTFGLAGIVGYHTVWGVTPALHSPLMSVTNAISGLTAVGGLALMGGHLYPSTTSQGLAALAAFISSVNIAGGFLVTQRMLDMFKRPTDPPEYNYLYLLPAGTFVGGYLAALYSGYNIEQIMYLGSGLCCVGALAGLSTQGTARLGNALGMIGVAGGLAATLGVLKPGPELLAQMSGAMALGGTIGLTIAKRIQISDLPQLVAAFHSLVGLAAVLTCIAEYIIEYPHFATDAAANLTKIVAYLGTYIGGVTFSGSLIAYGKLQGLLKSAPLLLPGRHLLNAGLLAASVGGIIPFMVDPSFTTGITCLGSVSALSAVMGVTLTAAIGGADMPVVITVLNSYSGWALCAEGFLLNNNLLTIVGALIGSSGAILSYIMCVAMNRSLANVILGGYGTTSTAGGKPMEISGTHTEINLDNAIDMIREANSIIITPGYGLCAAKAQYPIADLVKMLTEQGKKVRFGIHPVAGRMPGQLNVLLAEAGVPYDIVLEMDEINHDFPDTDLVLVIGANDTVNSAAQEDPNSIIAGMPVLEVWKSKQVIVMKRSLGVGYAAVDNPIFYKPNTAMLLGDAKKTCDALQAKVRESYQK
Method: (§4) Glutathione measurements: Cell lysates were prepared from equal numbers of cells after 24 h of DCC or 2,3BD treatment, following the manufacturer's protocols. Seventy-two h post siRNA treatment or overexpression of NNT and their corresponding controls, glutathione levels were determined using the GSH/GSSG-Glo assay (Promega, #V6611) and luminescence was measured using an EnVision 2104 Multilabel Reader (PerkinElmer).

[7] = biological target: T1, NNT; experiment: GSH/GSSG ratio (indirect endpoint of NNT enzyme activity) in primary melanocytes; type: cell-based; parameters: endogenous in cells; host or cells: primary human melanocytes (isolated from neonatal foreskins); settings: different doses, 24 hours
Method: as §4

[8] = tested on: zebrafish melanocytes; experiment: Chemical treatment of zebrafish, melanocytic brightness; type: in vivo; settings: 24 hours, 100 μM 2,3BD or 50 μM DCC
Method: Wildtype Tübingen zebrafish were placed in a 24 well plate at 72 hours post-fertilization, with 10 larvae per well for a total twenty larvae per condition. Larvae were treated for 24 hours with either 2,3BD (1 μM, 10 μM, 100 μM, 1 mM; Sigma Aldrich, #B85307), DCC (1 μM, 10 μM, 50 μM, 100 μM; Sigma Aldrich, #D80002), or DMSO (1:500) in E3 embryo medium. At 4 days post fertilization, larvae were imaged using a Nikon SMZ18 Stereomicroscope. Melanocytes from at least 5 zebrafish embryos of each group for each experiment were analyzed using the FIJI software enabling pixel-based color quantification.

Question: Which results are given for `C(=NC1CCCCC1)=NC1CCCCC1` [DCC, N,N′-Dicyclohexylcarbodiimide]?
Answer: intracellular melanin content [1]: significantly increased the melanin content; cell viability [2]: no impacts on cell viability; melanin content [3]: increased melanin content; cell viability [4]: no impact on cell viability; toxicity (viability) [5]: no significant toxicity; GSH/GSSG ratio [6]: decreased GSH/GSSG ratios; GSH/GSSG ratio [7]: decreased GSH/GSSG ratios; darkening of zebrafish embryos (melanocytic brightness) [8]: significant darkening
